{
  "source": "patent US12692254B2",
  "about": "“Benzimidazole inhibitors of PAD enzymes” (BRISTOL-MYERS SQUIBB COMPANY, priority 2018, dated 2026)",
  "data": [
    {"biological_target": "human PAD4 (hPAD4) (Homo sapiens, UniProt Q9UM07)", "sequence (Q9UM07 whole entry)": "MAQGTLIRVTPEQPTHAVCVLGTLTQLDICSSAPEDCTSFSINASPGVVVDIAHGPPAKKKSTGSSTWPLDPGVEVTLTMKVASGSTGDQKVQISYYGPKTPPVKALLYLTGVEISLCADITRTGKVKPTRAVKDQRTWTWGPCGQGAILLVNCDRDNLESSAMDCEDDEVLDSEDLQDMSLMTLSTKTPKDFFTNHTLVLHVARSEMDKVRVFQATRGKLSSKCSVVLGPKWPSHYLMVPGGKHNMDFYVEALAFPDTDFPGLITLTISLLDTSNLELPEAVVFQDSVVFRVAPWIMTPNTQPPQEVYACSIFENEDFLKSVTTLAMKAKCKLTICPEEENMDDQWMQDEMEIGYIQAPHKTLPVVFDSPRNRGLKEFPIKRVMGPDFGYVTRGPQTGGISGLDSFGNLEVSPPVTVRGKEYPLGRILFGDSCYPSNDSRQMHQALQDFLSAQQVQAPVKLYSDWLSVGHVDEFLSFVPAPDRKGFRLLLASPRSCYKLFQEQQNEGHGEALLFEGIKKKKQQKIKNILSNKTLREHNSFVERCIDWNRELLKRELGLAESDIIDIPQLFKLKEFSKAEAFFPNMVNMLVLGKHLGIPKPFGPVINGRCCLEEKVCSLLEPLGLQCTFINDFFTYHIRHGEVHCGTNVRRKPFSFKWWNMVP", "assay": "RFMS human PAD4 functional assay (rapid-fire mass spectrum)", "format": "biochemical", "conditions": "5 nM hPAD4 enzyme, 250 μM BAEE, 50 μM Calcium; 30 min preincubation, 90 min reaction at 37° C.", "method_in_brief": "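PAD4 (10 nM) preincubated 30 min with compound (top final 50 μM), then BAEE substrate added in pH 7.5 HEPES buffer with DTT, 50 μM calcium, TPEN; 90 min at 37° C. After TCA quench, citrulline derivatized with phenyl glyoxal (4 mM final, 30 min, 37° C) and quantified by RapidFire MS against internal standard.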", "units": {"IC50": "µM"}, "values": [
      {"compound": "COc1cc(C(=O)N2C[C@H]3CC[C@@H]2[C@@H]3N)cc2nc(-c3cc4cccnc4n3CC3CC3)n(CC3CN(c4ncc(C#N)cc4Br)C3)c12", "note": "[Example 29, 6-[3-({5-[(1R,4R,7R)-7-amino-2-azabicyclo[2.2.1]heptane-2-carbonyl]-2-[1-(cyclopropylmethyl)-1H-pyrrolo[2,3-b]pyridin-2-yl]-7-methoxy-1H-1,3-benzodiazol-1-yl}methyl)azetidin-1-yl]-5-bromopyridine-3-carbonitrile]", "IC50": 0.078},
      {"compound": "COc1cc(C(=O)N2CC3CCC2[C@@H]3N)cc2nc(-c3cc4cccnc4n3CC3CC3)n(C[C@@H]3CCN(c4ccnc(C#N)n4)C3)c12", "note": "(stereo partly drawn) [Example 205, 4-[(3R)-3-({5-[(1R,4R,7R)-7-amino-2-azabicyclo[2.2.1]heptane-2-carbonyl]-2-[1-(cyclopropylmethyl)-1H-pyrrolo[2,3-b]pyridin-2-yl]-7-methoxy-1H-1,3-benzodiazol-1-yl}methyl)pyrrolidin-l-yl]pyrimidine-2-carbonitrile]", "IC50": 0.037},
      {"compound": "COc1cc(C(=O)N2CC3CCC2[C@@H]3N)cc2nc(-c3cc4cccnc4n3CC3CC3)n(Cc3cnn(-c4ccc(O)nc4)c3)c12", "note": "(stereo partly drawn) [Example 370, 5-[4-({5-[(7R)-7-amino-2-azabicyclo[2.2.1]heptane-2-carbonyl]-2-[1-(cyclopropylmethyl)-1H-pyrrolo[2,3-b]pyridin-2-yl]-7-methoxy-1H-1,3-benzodiazol-1-yl}methyl)-1H-pyrazol-1-yl]pyridin-2-ol]", "IC50": 0.03},
      {"compound": "COc1nccc(N2CC(Cn3c(-c4cc5cccnc5n4CC4CC4)nc4cc(C(=O)N5C[C@H]6CC[C@@H]5[C@@H]6N)cc(OC)c43)C2)n1", "note": "[Example 20, (1R,4R,7R)-2-{2-[1-(cyclopropylmethyl)-1H-pyrrolo[2,3-b]pyridin-2-yl]-7-methoxy-1-{[1-(2-methoxypyrimidin-4-yl)azetidin-3-yl]methyl}-1H-1,3-benzodiazole-5-carbonyl}-2-azabicyclo[2.2.1]heptan-7-amine]", "IC50": 0.057},
      {"compound": "COc1cc(C(=O)N2CC3CCC2[C@@H]3N)cc2nc(-c3cc4ccccc4n3CC3CC3)n(CC3CN(C(=O)c4ccccc4C(=O)O)C3)c12", "note": "(stereo partly drawn) [Example 179, 2-[3-({5-[(1R,4R,7R)-7-amino-2-azabicyclo[2.2.1]heptane-2-carobnyl]-2-[1-(cyclopropylmethyl)-1H-indol-2-yl]-7-methoxy-1H-1,3-benzodiazol-1-yl}methyl)azetidine-1-carbonyl]benzoic acid]", "IC50": 0.093},
      {"compound": "COc1cc(C(=O)N2C[C@H]3CC[C@@H]2[C@@H]3N)cc2nc(-c3cc4cccnc4n3C)n(CC3CN(c4cncnc4C#N)C3)c12", "note": "[Example 78, 5-[3-({5-[(1R,4R,7R)-7-amino-2-azabicyclo[2.2.1]heptane-2-carbonyl]-7-methoxy-2-{1-methyl-1H-pyrrolo[2,3-b]pyridin-2-yl}-1H-1,3-benzodiazol-1-yl}methyl)azetidin-1-yl]pyrimidine-4-carbonitrile]", "IC50": 0.373},
      {"compound": "COc1cc(C(=O)N2CC3CCC2[C@@H]3N)cc2nc(-c3cc4cccnc4n3CC3CC3)n(CC3CCN(c4ncccn4)CC3)c12", "note": "(stereo partly drawn) [Example 220, (1R,4R,7R)-2-{2-[1-(cyclopropylmethyl)-1H-pyrrolo[2,3-b]pyridin-2-yl]-7-methoxy-1-{[1-(pyrimidin-2-yl)piperidin-4-yl]methyl)-1H-1,3-benzodiazole-5-carbonyl}-2-azabicyc1o[2.2.1]heptan-7-amine]", "IC50": 0.072},
      {"compound": "COc1cc(C(=O)N2CC3CCC2[C@@H]3N)cc2nc(-c3cc4ccccc4n3CC3CC3)n(Cc3cnn(-c4cccc(C)n4)c3)c12", "note": "(stereo partly drawn) [Example 381, (7R)-2-{2-[1-(cyclopropylmethyl)-1H-indol-2-yl]-7-methoxy-1-{[1-(6-methylpyridin-2-yl)-1H-pyrazol-4-yl]methyl}-1H-1,3-benzodiazole-5-carbonyl}-2-azabicydo[2.2.1]heptan-7-amine]", "IC50": 0.037},
      {"compound": "COc1cc(C(=O)N2CC3CCC2[C@@H]3N)cc2nc(-c3cc4cccnc4n3CC3CC3)n(CC3CN(C(=O)[C@@H]4C[C@H]4C)C3)c12", "note": "(stereo partly drawn) [Example 128, (1R,4R,7R)-2-{2-[1-(cyclopropylmethyl)-1H-pyrrolo[2,3-b]pyridin-2-yl]-7-methoxy-1-({1-[(1R,2R)-2-methylcyclopropanecarbonyl]aze-tidin-3-yl}methyl)-1H-1,3-benzodiazole-5-carbonyl}-2-azabicyclo[2.2.1]heptan-7-amine]", "IC50": 0.109},
      {"compound": "COc1cc(C(=O)N2C[C@H](N)C[C@@H](F)C2)cc2nc(-c3cc4ccccc4n3CC3CC3)n(Cc3cccnc3)c12", "note": "[Example 248, ((3R,5R)-3-amino-5-fluoropiperidin-1-yl)(2-(1-(cyclopropylmethyl)-1H-indol-2-yl)-7-methoxy-1-(pyridin-3-ylmethyl)-1H-benzo[d]imidazol-5-yl)methanone]", "IC50": 0.116},
      {"compound": "COc1cc(C(=O)N2CC3CCC2[C@@H]3N)cc2nc(-c3cc4ccccc4n3CC3CC3)n(CC3CC(F)(F)C3)c12", "note": "(stereo partly drawn) [Example 478, (7R)-2-{2-[1-(cyclopropylmethyl)-1H-indol-2-yl]-1-[(3,3-difluorocyclobutyl)methyl]-7-methoxy-1H-1,3-benzodiazole-5-carbonyl}-2-azabicyclo[2.2.1]heptan-7-amine]", "IC50": 0.048},
      {"compound": "COc1cc(C(=O)N2C[C@H]3CC[C@@H]2[C@@H]3N)cc2nc(-c3cc4cccnc4n3CC3CC3)n(CC3CN(c4cncc(C#N)c4)C3)c12", "note": "[Example 7, 5-[3-({5-[(1R,4R,7R)-7-amino-2-azabicyclo[2.2.1]heptane-2-carbonyl]-2-[1-(cyclopropylmethyl)-1H-pyrrolo[2,3-b]pyridin-2-yl]-7-methoxy-1H-1,3-benzodiazol-1-yl}methyl)azetidin-1-yl]pyridine-3-carbonitrile]", "IC50": 0.094},
      {"compound": "COc1cc(C(=O)N2C[C@H]3CC[C@@H]2[C@@H]3N)cc2nc(-c3cc4ccc(Cl)cc4n3CC3CC3)n(CC3CN(c4cncc(C#N)c4)C3)c12", "note": "[Example 87, 5-[3-({5-[(1R,4R,7R)-7-amino-2-azabicyclo[2.2.1]heptane-2-carbonyl]-2-[6-chloro-1-(cyclopropylmethyl)-1H-indol-2-yl]-7-methoxy-1H-1,3-benzodiazol-1-yl}methyl)azetidin-1-yl]pyridine-3-carbonitrile]", "IC50": 2.28},
      {"compound": "COc1cc(C(=O)N2C[C@H]3CC[C@@H]2[C@@H]3N)cc2nc(-c3cc4cccnc4n3CC3CC3)n(C3CN(c4cncc(C#N)c4)C3)c12", "note": "[Example 73, 5-(3-{5-[(1R,4R,7R)-7-amino-2-azabicyclo[2.2.1]heptane-2-carbonyl]-2-[1-(cyclopropylmethyl)-1H-pyrrolo[2,3-b]pyridin-2-yl]-7-methoxy-1H-1,3-benzodiazol-1-yl}azetidin-1-yl)pyridine-3-carbonitrile]", "IC50": 0.149},
      {"compound": "COc1cc(C(=O)N2CC3CCC2[C@@H]3N)cc2nc(-c3cc4cccnc4n3CC3CC3)n(Cc3cc(C)nn3C)c12", "note": "(stereo partly drawn) [Example 494, (7R)-2-{2-[1-(cyclopropylmethyl)-1H-pyrrolo[2,3-b]pyridin-2-yl]-1-[(1,3-dimethyl-1H-pyrazol-5-yl)methyl]-7-methoxy-1H-1,3-benzodiazole-5-carbonyl}-2-azabicyclo[2.2.1]heptan-7-amine]", "IC50": 0.086},
      {"compound": "COc1cc(C(=O)N2CC3CCC2[C@@H]3N)cc2nc(-c3cc4ccccc4n3CC3CC3)n(Cc3cnn(-c4cnc(C#N)c(F)c4)c3)c12", "note": "(stereo partly drawn) [Example 394, 5-[4-({5-[(7R)-7-amino-2-azabicyclo[2.2.1]heptane-2-carbonyl]-2-[1-(cyclopropyimethyl)-1H-indol-2-yl]-7-methoxy-1H-1,3-benzodiazol-1-yl}methyl)-1H-pyrazol-1-yl]-3-fluoropyridine-2-carbonitrile]", "IC50": 0.05},
      {"compound": "COc1cc(C(=O)N2C[C@H]3CC[C@@H]2[C@@H]3N)cc2nc(-c3cc4cccnc4n3CC3CC3)n(C3CN(C(=O)c4cnc(C#N)nc4)C3)c12", "note": "[Example 102, 5-(3-{5-[(1R,4R,7R)-7-amino-2-azabicyclo[2.2.1]heptane-2-carbonyl]-2-[1-(cyclopropylmethyl)-1H-pyrrolo[2,3-b]pyridin-2-yl]-7-methoxy-1H-1,3-benzodiazol-1-yl}azetidine-1-carbonyl)pyrimidine-2-carbonitrile]", "IC50": 0.141},
      {"compound": "COc1cc(C(=O)N2C[C@H]3CC[C@@H]2[C@@H]3N)cc2nc(-c3cc4cccnc4n3CC3CC3)n(CC3CCN(C(=O)c4ccnc(Cl)c4)CC3)c12", "note": "[Example 198, (1R,4R,7R)-2-(1-{[1-(2-chloropyridine-4-carbonyl)piperidin-4-yl]methyl}-2-[1-(cyclopropylmethyl)-1H-pyrrolo[2,3-b]pyridin-2-yl]-7-methoxy-1H-1,3-benzodiazole-5-carbonyl)-2-azabicyclo[2.2.1]heptan-7-amine]", "IC50": 0.131},
      {"compound": "CCS(=O)(=O)N1CC(Cn2c(-c3cc4cccnc4n3CC3CC3)nc3cc(C(=O)N4CC5CCC4[C@@H]5N)cc(OC)c32)C1", "note": "(stereo partly drawn) [Example 336, (1R,4R.,7R)-2-{2-[1-(cyclopropylmethyl)-1H-pyrrolo[2,3-b]pyridin-2-yl]-1-{[1-(ethanesulfonyl)azetidin-3-yl]methyl}-7-methoxy-1H-1,3-benzodiazole-5-carbonyl}-2-azabicyclo[2.2,1]heptan-7-amine]", "IC50": 0.31},
      {"compound": "COc1cc(C(=O)N2CC3CCC2[C@@H]3N)cc2nc(-c3cc4ccccc4n3CC3CC3)n(Cc3cnn(-c4cnc(O)c(F)c4)c3)c12", "note": "(stereo partly drawn) [Example 357, 5-[4-({5-[(7R)-7-amino-2-azabicyclo[2.2.1]heptane-2-carbonyl]-2-[1-(cyclopropylmethyl)-1H-indol-2-yl]-7-methoxy-1H-1,3-benzodiazol-1-yl}methyl)-1H-pyrazol-1-yl]-3-fluoropyridin-2-ol]", "IC50": 0.023},
      {"compound": "COc1cc(C(=O)N2C[C@H]3CC[C@@H]2[C@@H]3N)cc2nc(-c3cc4cccnc4n3CC3CC3)n(CC3CN(c4nnc(C)o4)C3)c12", "note": "[Example 56, (1R,4R,7R)-2-{2-[1-(cyclopropylmethyl)-1H-pyrrolo[2,3-b]pyridin-2-yl]-7-methoxy-1-{[1-(5-methyl-1,3,4-oxadiazol-2-yl)azetidin-3-yl]methyl}-1H-1,3-benzodiazole-5-carbonyl}-2-azabicyclo[2.2.1]heptan-7-amine]", "IC50": 0.166}
    ]}
  ]
}
